pIC50: −log10 of the molar value.
These compounds were tested against T1, human neurokinin-1 receptor (NK1R) (Homo sapiens, UniProt P25103) (assay: Binding assay of human NK1R expressed in COS or CHO cells (125I-substance P competition)). Settings: 125I-substance P binding to human NK1R expressed in COS or CHO cells.
T1 construct: the cDNA for the human NK1R was cloned into the expression vector pCDM9; expressed in transfected cells
T1 sequence (P25103 whole entry): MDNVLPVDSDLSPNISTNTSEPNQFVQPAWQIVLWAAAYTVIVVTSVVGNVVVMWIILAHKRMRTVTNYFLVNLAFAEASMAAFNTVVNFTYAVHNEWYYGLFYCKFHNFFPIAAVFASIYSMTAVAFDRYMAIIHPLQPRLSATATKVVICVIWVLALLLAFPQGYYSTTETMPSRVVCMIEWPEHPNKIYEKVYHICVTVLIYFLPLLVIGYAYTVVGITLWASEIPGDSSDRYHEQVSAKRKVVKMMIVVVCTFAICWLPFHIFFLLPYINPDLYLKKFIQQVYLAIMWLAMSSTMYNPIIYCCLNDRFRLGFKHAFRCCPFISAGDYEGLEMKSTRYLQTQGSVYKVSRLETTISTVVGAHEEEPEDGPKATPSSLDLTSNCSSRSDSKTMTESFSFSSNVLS
Procedure: Receptor Expression in COS: To express the cloned human neurokinin-1 receptor (NK1R) transiently in COS, the cDNA for the human NK1R was cloned into the expression vector pCDM9 which was derived from pCDM8 (INVITROGEN) by inserting the ampicillin resistance gene (nucleotide 1973 to 2964 from BLUESCRIPT SK+) into the Sac II site. Transfection of 20 ug of the plasmid DNA into 10 million COS cells was achieved by electroporation in 800 ul of transfection buffer (135 mM NaCl, 1.2 mM CaCl2, 1.2 mM MgCl2, 2.4 mM K2HPO4, 0.6 mM KH2PO4, 10 mM glucose, 10 mM HEPES pH 7.4) at 260 V and 950 uF using the IBI GENEZAPPER (1131, New Haven, Conn.). The cells were incubated in 10% fetal calf serum, 2 mM glutamine, 100 U/ml penicillin-streptomycin, and 90% DMEM media (GIBCO, Grand Island, N.Y.) in 5% CO2 at 37° C. for three days before the binding assay.
Stable Expression in CHO: To establish a stable cell line expressing the cloned human NK1R, the cDNA was subcloned into the vector pRcCMV (INVITROGEN). Transfection of 20 ug of the plasmid DNA into CHO cells was achieved by electroporation in 800 ul of transfection buffer supplemented with 0.625 mg/ml Herring sperm DNA at 300 V and 950 uF using the IBI GENEZAPPER (IBI). The transfected cells were incubated in CHO media [10% fetal calf serum, 100 U/ml penicillin-streptomycin, 2 mM glutamine, 1/500 hypoxanthine-thymidine (ATCC), 90% IMDM media (JRH BIOSCIENCES, Lenexa, Kans.), 0.7 mg/ml G418 (GIBCO)] in 5% CO2 at 37° C. until colonies were visible. Each colony was separated and propagated. The cell clone with the highest number of human NK1R was selected for subsequent applications such as drug screening.
Assay Protocol using COS or CHO: The binding assay of human NK1R expressed in either COS or CHO cells is based on the use of ^125I-substance P (^125I-SP, from DU PONT, Boston, Mass.) as a radioactively labeled ligand which competes with unlabeled substance P or any other ligand for binding to the human NK1R. Monolayer cell cultures of COS or CHO were dissociated by the non-enzymatic solution (SPECIALTY MEDIA, Lavallette, N.J.) and resuspended in appropriate volume of the binding buffer (50 mM Tris pH 7.5, 5 mM MnCl2, 150 mM NaCl, 0.04 mg/ml bacitracin, 0.004 mg/ml leupeptin, 0.2 mg/ml BSA, 0.01 mM phosphoramidon) such that 200 ul of the cell suspension would give rise to about 10,000 cpm of specific ^125I-SP binding (approximately 50,000 to 200,000 cells). In the binding assay, 200 ul of cells were added to a tube containing 20 ul of 1.5 to 2.5 nM of ^125I-SP and 20 ul of unlabeled substance P or any other test compound. The tubes were incubated at 4° C. or at room temperature for 1 hour with gentle shaking. The bound radioactivity was separated from unbound radioactivity by GF/C filter (BRANDEL, Gaithersburg, Md.) which was pre-wetted with 0.1% polyethylenimine. The filter was washed with 3 ml of wash buffer (50 mM Tris pH 7.5, 5 mM MnCl2, 150 mM NaCl) three times and its radioactivity was determined by gamma counter. The activation of phospholipase C by NK1R may also be measured in CHO cells expressing the human NK1R by determining the accumulation of inositol monophosphate which is a degradation product of IP3. CHO cells are seeded in 12-well plate at 250,000 cells per well. After incubating in CHO media for 4 days, cells are loaded with 0.025 uCi/ml of 3H-myoinositol by overnight incubation. The extracellular radioactivity is removed by washing with phosphate buffered saline. LiCl is added to the well at final concentration of […] with or without the test compound, and incubation is continued at 37° C. for […]. Substance P is added to the well at final concentration of 0.3 nM to activate the human NK1R. After 30 min of incubation at 37° C., the media is removed and 0.1 N HCl is added. Each well is sonicated at 4° C. and extracted with CHCl3/methanol (1:1). The aqueous phase is applied to a 1 ml Dowex AG 1×8 ion exchange column. […]
A pIC50 of 10.40 was found for `Cc1ccccc1[C@H]1[C@@H]2CNC[C@H]2CC[C@@H]1O[C@H](CO)c1cc(C(F)(F)F)cc(C(F)(F)F)c1` [Example 2, (2S)-2-[3,5-bis(trifluoromethyl)phenyl]-2-{[(3aR,4R,5S,7aS)-4-(2-methylphenyl)octahydro-1H-isoindol-5-yl]oxy}ethanol] in this work. A pIC50 of 10.22 was found for `Cc1ccccc1[C@H]1[C@@H]2CN(C3=CC(=O)CC3)C[C@H]2CC[C@@H]1O[C@H](CO)c1cc(C(F)(F)F)cc(C(F)(F)F)c1` [Example 3, 3-[(3aR,4R,5S,7aS)-5-{(1S)-1-[3,5-bis(trifluoromethyl)phenyl]-2-hydroxyethoxy}-4-(2-methylphenyl)octahydro-2H-isoindol-2-yl]cyclopent-2-en-1-one] in this work. A pIC50 of 10.00 was found for `COC[C@@H](O[C@H]1CC[C@@H]2CN(C3=CC(=O)CC3)C[C@H]2[C@@H]1c1ccccc1C)c1cc(C(F)(F)F)cc(C(F)(F)F)c1` [Example 4, 3-[(3aR,4R,5S,7aS)-5-{(1S)-1-[3,5-bis(trifluoromethyl)phenyl]-2-methoxyethoxy}-4-(2-methylphenyl)octahydro-2H-isoindol-2-yl]cyclopent-2-en-1-one] in this work. A pIC50 of 10.22 was found for `Cc1ccccc1[C@H]1[C@@H]2CN(C3=NC(=O)CO3)C[C@H]2CC[C@@H]1O[C@H](CO)c1cc(C(F)(F)F)cc(C(F)(F)F)c1` [Example 5, 2-[(3aR,4R,5S,7aS)-5-{(1S)-1-[3,5-bis(trifluoromethyl)phenyl]-2-hydroxyethoxy}-4-(2-methylphenyl)octahydro-2H-isoindol-2-yl]-1,3-oxazol-4(5H)-one] in this work. A pIC50 of 10.52 was found for `Cc1ccccc1[C@H]1[C@@H]2CN(C(=O)N(C)C)C[C@H]2CC[C@@H]1O[C@H](CO)c1cc(C(F)(F)F)cc(C(F)(F)F)c1` [Example 6, (3aR,4R,5S,7aS)-5-{(1S)-1-[3,5-bis(trifluoromethyl)phenyl]-2-hydroxyethoxy}-N,N-dimethyl-4-(2-methylphenyl)octahydro-2H-isoindole-2-carboxamide] in this work. A pIC50 of 10.10 was found for `Cc1ccccc1[C@H]1[C@@H]2CN(C(=O)C(C)C)C[C@H]2CC[C@@H]1O[C@H](CO)c1cc(C(F)(F)F)cc(C(F)(F)F)c1` [Example 7, (2S)-2-[3,5-bis(trifluoromethyl)phenyl]-2-{[(3aR,4R,5S,7aS)-2-isobutyryl-4-(2-methylphenyl)octahydro-1H-isoindol-5-yl]oxy}ethanol] in this work. A pIC50 of 10.52 was found for `O=C1COC(N2C[C@H]3CC[C@H](O[C@H](CO)c4cc(C(F)(F)F)cc(C(F)(F)F)c4)[C@@H](c4ccc(F)cc4)[C@@H]3C2)=N1` [Example 8] in this work. A pIC50 of 10.05 was found for `O=C1C=C(N2C[C@H]3CC[C@H](O[C@H](CO)c4cc(C(F)(F)F)cc(C(F)(F)F)c4)[C@@H](c4ccc(F)cc4)[C@@H]3C2)CC1` [Example 9] in this work. A pIC50 of 10.52 was found for `Cc1cc(F)ccc1[C@H]1[C@@H]2CN(C3=NC(=O)CO3)C[C@H]2CC[C@@H]1O[C@H](CO)c1cc(C(F)(F)F)cc(C(F)(F)F)c1` [Example 10] in this work. A pIC50 of 10.52 was found for `Cc1cc(F)ccc1[C@H]1[C@@H]2CN(C3=CC(=O)CC3)C[C@H]2CC[C@@H]1O[C@H](CO)c1cc(C(F)(F)F)cc(C(F)(F)F)c1` [Example 11] in this work. A pIC50 of 10.15 was found for `Cc1ccccc1[C@H]1[C@@H]2CN(C(=O)C(C)(C)C)C[C@H]2CC[C@@H]1O[C@H](CO)c1cc(C(F)(F)F)cc(C(F)(F)F)c1` [Example 12] in this work. A pIC50 of 10.22 was found for `Cc1ccccc1[C@H]1[C@@H]2CN(C(=O)C3CC3)C[C@H]2CC[C@@H]1O[C@H](CO)c1cc(C(F)(F)F)cc(C(F)(F)F)c1` [Example 13] in this work. A pIC50 of 9.34 was found for `COC[C@@H](O[C@H]1CC[C@@H]2CN(C(=O)N(C)C)C[C@H]2[C@@H]1c1ccccc1C)c1cc(C(F)(F)F)cc(C(F)(F)F)c1` [Example 14] in this work. A pIC50 of 9.46 was found for `OC[C@@H](O[C@H]1CC[C@@H]2CNC[C@H]2[C@@H]1c1ccc(F)cc1)c1cc(C(F)(F)F)cc(C(F)(F)F)c1` [Example 16] in this work. A pIC50 of 7.26 was found for `O=C1C=C(N2C[C@H]3CC[C@H](O[C@@H](CO)c4cc(C(F)(F)F)cc(C(F)(F)F)c4)[C@@H](c4ccc(F)cc4)[C@@H]3C2)CC1` [Example 21] in this work. A pIC50 of 8.66 was found for `Cc1ccccc1[C@H]1[C@@H]2CNC[C@H]2CC[C@@H]1O[C@@H](CO)c1cc(C(F)(F)F)cc(C(F)(F)F)c1` [Example 22] in this work. A pIC50 of 7.35 was found for `Cc1ccccc1[C@H]1[C@@H]2CN(C(=O)C(C)(C)C)C[C@H]2CC[C@@H]1O[C@@H](CO)c1cc(C(F)(F)F)cc(C(F)(F)F)c1` [Example 24] in this work.

Same assay, conditions: at 0.1 nM; 125I-substance P binding to human NK1R
An inhibition at 0.0001 µM of 47% was found for `OC[C@H](O[C@H]1CC[C@@H]2CNC[C@H]2[C@@H]1c1ccc(F)cc1)c1cc(C(F)(F)F)cc(C(F)(F)F)c1` [Example 27] in this work.

— patent US8124633B2, “Hydroxymethyl ether hydroisoindoline tachykinin receptor antagonists” (Merck Sharp & Dohme Corp., priority 2007, dated 2012)
